In US9908886B2 (Agency for Science, Technology and Research, priority 2012, dated 2018):
Read-outs that look alike come from different tables or passages of the source.

Assays:
MNK2 = MNK2 (Homo sapiens (Human), UniProt Q9HBH9); test: In vitro MNK kinase assay (Caliper LabChip mobility shift); format: biochemical
MNK1 = MNK1 (Homo sapiens, UniProt Q9BUB5); test: as above; format: biochemical
[1] = enzymatic, 250 μM ATP, read-out: IC50 Mnk2
[2] = enzymatic, 1.2 mM ATP, read-out: IC50 Mnk1

Chain of MNK2 (Q9HBH9 84-388): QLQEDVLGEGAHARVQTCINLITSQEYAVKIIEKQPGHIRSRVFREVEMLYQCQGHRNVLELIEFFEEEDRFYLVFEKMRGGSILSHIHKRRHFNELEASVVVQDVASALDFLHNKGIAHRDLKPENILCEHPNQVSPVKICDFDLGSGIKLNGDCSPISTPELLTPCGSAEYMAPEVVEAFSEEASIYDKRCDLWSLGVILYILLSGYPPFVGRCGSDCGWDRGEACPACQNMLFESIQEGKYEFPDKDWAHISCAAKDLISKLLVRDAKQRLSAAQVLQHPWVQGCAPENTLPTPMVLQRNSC

SMILES | IC50 (MNK2; [1]) | IC50 (MNK1; [2]) | IC50 (MNK2) | IC50 (MNK1)
CC1(O)CCN(C(=O)c2ccc(-c3ccc4ncc(-c5ccc(C#N)cc5)n4c3)cc2)CC1 [Example 106, 4-(6-(4-(4-hydroxy-4-methylpiperidine-1-carbonyl)phenyl)imidazo[1,2-a]pyridin-3-yl)benzonitrile] | < 100 nM | < 100 nM | – | –
CN1CCC(C2CCN(C(=O)c3ccc(-c4ccc5ncc(-c6ccc(C#N)cc6)n5c4)cc3)CC2)CC1 [Example 105, 4-(6-(4-(1′-methyl-4,4′-bipiperidine-1-carbonyl)phenyl)imidazo[1,2-a]pyridin-3-yl)benzonitrile] | < 100 nM | < 100 nM | – | –
CCN1CCN(C(=O)c2ccc(-c3ccc4ncc(-c5ccc(C#N)cc5)n4c3)cc2)CC1 [Example 98, 4-(6-(4-(4-ethylpiperazine-1-carbonyl)phenyl)imidazo[1,2-a]pyridin-3-yl)benzonitrile] | < 100 nM | < 100 nM | – | –
CC(C)(C)N1CCN(C(=O)c2ccc(-c3cn4c(-c5ccc(C#N)cc5)cnc4cn3)cc2)CC1 [Example 26, 4-(6-(4-(4-tert-butylpiperazine-1-carbonyl)phenyl)imidazo[1,2-a]pyrazin-3-yl)benzonitrile] | < 1000 nM | < 1000 nM | – | –
CN1CCCN(C(=O)c2ccc(-c3ccc4ncc(-c5ccc(C#N)cc5)n4c3)cc2)CC1 [Example 103, 4-(6-(4-(4-methyl-1,4-diazepane-1-carbonyl)phenyl)imidazo[1,2-a]pyridin-3-yl)benzonitrile] | < 100 nM | < 100 nM | – | –
CNC1CCN(C(=O)c2ccc(-c3ccc4ncc(-c5ccc(C#N)cc5)n4c3)cc2NC(C)=O)CC1 [Example 169, N-(5-(3-(4-cyanophenyl)imidazo[1,2-a]pyridin-6-yl)-2-(4-(methylamino)piperidine-1-carbonyl)phenyl)acetamide] | – | – | < 100 nM | < 100 nM
N#Cc1ccc(-c2cnc3ccc(-c4ccc(C(=O)N5CCNCC5)cc4)nn23)cc1 [Example 65, 4-(6-(4-(piperazine-1-carbonyl)phenyl)imidazo[1,2-b]pyridazin-3-yl)benzonitrile] | < 100 nM | < 100 nM | – | –
N#Cc1ccc(-c2cnc3cnc(-c4ccc(C(=O)N5CCN(C6CC6)CC5)cc4)cn23)cc1 [Example 14, 4-(6-(4-(4-cyclopropylpiperazine-1-carbonyl)phenyl)imidazo[1,2-a]pyrazin-3-yl)benzonitrile] | < 1000 nM | < 1000 nM | – | –
CCC1(NC(C)=O)CCN(C(=O)c2ccc(-c3ccc4ncc(-c5ccc(C#N)cc5)n4n3)cc2)CC1 [Example 66, N-(1-(4-(3-(4-cyanophenyl)imidazo[1,2-b]pyridazin-6-yl)benzoyl)-4-ethylpiperidin-4-yl)acetamide] | < 100 nM | < 100 nM | – | –
CN1CCN(C(=O)c2ccc(-c3ccc4ncc(-c5ccc(C#N)cc5)n4n3)cc2F)CC1 [Example 73, 4-(6-(3-fluoro-4-(4-methylpiperazine-1-carbonyl)phenyl)imidazo[1,2-b]pyridazin-3-yl)benzonitrile] | < 100 nM | < 100 nM | – | –
COc1cc(C(=O)N2CCN(C)CC2)ccc1-c1ccc2ncc(-c3ccc(C#N)cc3)n2n1 [Example 78, 4-(6-(2-methoxy-4-(4-methylpiperazine-1-carbonyl)phenyl)imidazo[1,2-b]pyridazin-3-yl)benzonitrile] | < 100 nM | < 100 nM | – | –
CC(=O)NC1CCN(C(=O)c2ccc(-c3ccc4ncc(-c5ccc(C#N)cc5)n4n3)cc2)CC1 [Example 57, N-(1-(4-(3-(4-cyanophenyl)imidazo[1,2-b]pyridazin-6-yl)benzoyl)piperidin-4-yl)acetamide] | < 100 nM | < 100 nM | – | –
N#Cc1ccc(-c2cnc3ccc(-c4ccc(C(=O)N5CCNC(=O)C5)cc4)nn23)cc1 [Example 68, 4-(6-(4-(3-oxopiperazine-1-carbonyl)phenyl)imidazo[1,2-b]pyridazin-3-yl)benzonitrile] | < 100 nM | < 100 nM | – | –
CN1CCN(C(=O)c2ccc(-c3ccc4ncc(-c5ccc6[nH]cnc6c5)n4n3)cc2)CC1 [Example 87, (4-(3-(1H-benzo[d]imidazol-5-yl)imidazo[1,2-b]pyridazin-6-yl)phenyl)(4-methylpiperazin-1-yl)methanone] | < 100 nM | < 100 nM | – | –
N#Cc1ccc(-c2cnc3ccc(-c4ccc(C(=O)N5CCC6(CCCCN6)CC5)cc4)nn23)cc1 [Example 71, 4-(6-(4-(1,9-diazaspiro[5.5]undecane-9-carbonyl)phenyl)imidazo[1,2-b]pyridazin-3-yl)benzonitrile] | < 100 nM | < 100 nM | – | –
CC1(N)CCN(C(=O)c2ccc(-c3cn4c(-c5ccc(C#N)cc5)cnc4cn3)cc2Cl)CC1 [Example 32, 4-(6-(4-(4-amino-4-methylpiperidine-1-carbonyl)-3-chlorophenyl)imidazo[1,2-a]pyrazin-3-yl)benzonitrile] | < 1000 nM | < 100 nM | – | –
N#Cc1ccc(-c2cnc3cnc(-c4ccc(C(=O)N5CCC6(CC5)COC6)cc4)cn23)cc1 [Example 24, 4-(6-(4-(2-oxa-7-azaspiro[3.5]nonane-7-carbonyl)phenyl)imidazo[1,2-a]pyrazin-3-yl)benzonitrile] | < 1000 nM | < 1000 nM | – | –
CC(=O)NC1(C)CCN(C(=O)c2ccc(-c3ccc4ncc(-c5ccc(C#N)cc5)n4c3)cc2)CC1 [Example 99, N-(1-(4-(3-(4-cyanophenyl)imidazo[1,2-a]pyridin-6-yl)benzoyl)-4-methylpiperidin-4-yl)acetamide] | < 100 nM | < 100 nM | – | –
N#Cc1ccc(-c2cnc3cnc(-c4ccc(C(=O)N5CCC(O)CC5)cc4)cn23)cc1 [Example 15, 4-(6-(4-(4-hydroxypiperidine-1-carbonyl)phenyl)imidazo[1,2-a]pyrazin-3-yl)benzonitrile] | < 1000 nM | < 1000 nM | – | –
CN1CCCN(C(=O)c2ccc(-c3cn4c(-c5ccc(C#N)cc5)cnc4cn3)cc2)CC1 [Example 17, 4-(6-(4-(4-methyl-1,4-diazepane-1-carbonyl)phenyl)imidazo[1,2-a]pyrazin-3-yl)benzonitrile] | < 1000 nM | < 1000 nM | – | –
N#Cc1ccc(-c2cnc3ccc(-c4ccc(C(=O)N5CCC(N)CC5)cc4)nn23)cc1 [Example 56, 4-(6-(4-(4-aminopiperidine-1-carbonyl)phenyl)imidazo[1,2-b]pyridazin-3-yl)benzonitrile] | < 100 nM | < 100 nM | – | –
CN1CCN(C(=O)c2ccc(-c3ccc4ncc(-c5ccc(O)cc5)n4c3)cc2)CC1 [Example 175, (4-(3-(4-hydroxyphenyl)imidazo[1,2-a]pyridin-6-yl)phenyl)(4-methylpiperazin-1-yl)methanone] | < 100 nM | – | – | –
O=C(c1ccc(-c2cn3c(-c4ccc(Cl)cc4)cnc3cn2)cc1)N1CCC(NC(=O)C(F)(F)F)CC1 [Example 48, N-(1-(4-(3-(4-chlorophenyl)imidazo[1,2-a]pyrazin-6-yl)benzoyl)piperidin-4-yl)-2,2,2-trifluoroacetamide] | – | < 1000 nM | – | –

Further lines, with some results ahead:

IC50 (MNK2; [1]) | IC50 (MNK1; [2]) | SMILES | IC50 (MNK2) | IC50 (MNK1)
< 100 nM | < 100 nM | N#Cc1ccc(-c2cnc3ccc(-c4ccc(C(=O)N5CCOCC5)c(O)c4)cn23)cc1 [Example 167, 4-(6-(3-hydroxy-4-(morpholine-4-carbonyl)phenyl)imidazo[1,2-a]pyridin-3-yl)benzonitrile] | – | –
< 100 nM | < 100 nM | CN1CCN(C(=O)c2ccc(-c3ccc4ncc(-c5ccc(C#N)cc5)n4c3)cc2N(C)C)CC1 [Example 147, 4-(6-(3-(dimethylamino)-4-(4-methylpiperazine-1-carbonyl)phenyl)imidazo[1,2-a]pyridin-3-yl)benzonitrile] | – | –
< 1000 nM | < 1000 nM | CN(C(=O)c1ccc(-c2ccc3ncc(-c4ccc(C#N)cc4)n3c2)cc1)c1ccncc1 [Example 122, 4-(3-(4-cyanophenyl)imidazo[1,2-a]pyridin-6-yl)-N-methyl-N-(pyridin-4-yl)benzamide] | – | –
< 1000 nM | < 1000 nM | Cc1cc2ncc(-c3ccc(C#N)cc3)n2cc1-c1ccc(C(=O)N2CCN(C)CC2)cc1 [Example 138, 4-(7-methyl-6-(4-(4-methylpiperazine-1-carbonyl)phenyl)imidazo[1,2-a]pyridin-3-yl)benzonitrile] | – | –
< 100 nM | < 1000 nM | N#Cc1ccc(-c2cnc3ccc(-c4ccc(C(=O)N5CCN(Cc6ccc(C(N)=O)cc6)CC5)cc4)cn23)cc1 [Example 129, 4-((4-(4-(3-(4-cyanophenyl)imidazo[1,2-a]pyridin-6-yl)benzoyl)piperazin-1-yl)methyl)benzamide] | – | –
< 100 nM | < 100 nM | CN1CCN(C(=O)c2ccc(-c3ccc4ncc(-c5ccc(C#N)cc5)n4c3)cc2)CC1=O [Example 130, 4-(6-(4-(4-methyl-3-oxopiperazine-1-carbonyl)phenyl)imidazo[1,2-a]pyridin-3-yl)benzonitrile] | – | –
< 100 nM | < 100 nM | N#Cc1ccc(-c2cnc3ccc(-c4ccc(C(=O)N5CCCNCC5)cc4)cn23)cc1 [Example 107, 4-(6-(4-(1,4-diazepane-1-carbonyl)phenyl)imidazo[1,2-a]pyridin-3-yl)benzonitrile] | – | –
< 100 nM | < 100 nM | CN(C)C1CCN(C(=O)c2ccc(-c3ccc4ncc(-c5ccc(C#N)cc5)n4c3)cc2)CC1 [Example 112, 4-(6-(4-(4-(dimethylamino)piperidine-1-carbonyl)phenyl)imidazo[1,2-a]pyridin-3-yl)benzonitrile] | – | –
< 100 nM | < 100 nM | Cc1nnc(C2(C)CCN(C(=O)c3ccc(-c4ccc5ncc(-c6ccc(C#N)cc6)n5c4)cc3)CC2)o1 [Example 135, 4-(6-(4-(4-methyl-4-(5-methyl-1,3,4-oxadiazol-2-yl)piperidine-1-carbonyl)phenyl)imidazo[1,2-a]pyridin-3-yl)benzonitrile] | – | –
< 100 nM | < 100 nM | CN1CCCCC12CCN(C(=O)c1ccc(-c3ccc4ncc(-c5ccc(C#N)cc5)n4c3)cc1)CC2 [Example 119, 4-(6-(4-(1-methyl-1,9-diazaspiro[5.5]undecane-9-carbonyl)phenyl)imidazo[1,2-a]pyridin-3-yl)benzonitrile] | – | –
